# Patent US10150793B2, “Antagonists of CB1 receptor” (INSERM (Institut National de la Santé et de la Recherche …, priority 2011, dated 2018)
# Assays:
# [1] = molecular target: CB1 receptor (Rattus norvegicus, UniProt P20272); experiment: THC-induced increase in food intake in ad libitum fed Wistar rats; format: in vivo; set-up: tissue Charles River Laboratories (France) (animals); host or cells: living Wistar rats, whole animal
# Procedure: Food intake was evaluated by measuring consumption of food in the home cages of the animals. For each animal, 50-100 g of standard laboratory chow (U.A.R., France) was placed in the cleaned home cage. The remaining amount of food was weighted 1 h later and the amount of food consumed calculated.
# [2] = molecular target: CB1 receptor (Mus musculus, UniProt P47746); experiment: THC inhibition of fEPSP in nucleus accumbens slices; format: cell-based, mice; set-up: from tissue; host or cells: acute brain slices, nucleus accumbens; settings: slices pre-incubated with pregnenolone 100 nM
# Procedure: Animals were deeply anesthetized with Isoflourane and transcardially perfused with a sucrose-based physiological solution at 4° C. (in mM: 23 NaHCO3, 70 Choline Cl, 75 Sucrose, 25 Glucose, 2.5 KCl, 1.25 NaH2PO4, 7 MgCl2 and 0.5 CaCl2). The brain was removed and sliced (250-300 μm) in the coronal plane using a vibratome (Campden Instruments, Loughborough, UK). During the slicing process, the brain was maintained in the sucrose-based solution. Immediately after cutting, slices were stored at 32° C. for 40 minutes in a low-calcium artificial cerebrospinal fluid (low-Ca^2+ ACSF) that contained (in mM): 23 NaHCO3, 120 NaCl, 11 Glucose, 2.5 KCl, 1.2 NaH2PO4, 2.4 MgCl2, 1.2 CaCl2. Slices were then stored in low-Ca^2+ ACSF at room temperature until recording.
# For fEPSPs, extracellular glass recording and stimulating electrodes were filled with ACSF. Synaptic potentials were evoked by means of two electric stimuli (0.1-0.25 mA, 200 μsec duration) delivered at 20 Hz every 10 seconds. Stimulating electrode was placed at a distance>150 μm in the dorsomedial direction from the recoding electrode.
# In order to test the effect of pregnenolone on a wider range of THC concentrations, we recorded fEPSP in NAc slices. Due to the possibility to achieved stable fEPSP measurements for several hours, this technique is ideally suited to perform dose-response curves and has previously been used to address CB1 receptor function (Robbe et al., 2001; Mato et al., 2004). Thus, AMPAR-mediated evoked fEPSP were recorded by electrically stimulating local axons.
# [3] = system: TNF-α; experiment: Increase in plasma TNF-alpha induced by LPS; format: in vivo, mice; settings: pregnenolone 6 mg/kg sc 30 min before LPS; measured 90 min after LPS
# [4] = system: GABA-A receptors; experiment: GABA-A receptors-mediated mIPSC in nucleus accumbens principal neurons; format: cell-based, mouse
# Procedure: GABA-A receptors-mediated currents: mIPSC were recorded in the presence of the AMPAR and NMDAR antagonists (DNQX 20 μM and AP-5 50 μM, respectably). mEPSC-mIPSC analysis: Typically, after breaking in, cells were left to equilibrate for 20 minutes and the subsequent 10 minutes recording of mEPSC-mIPSC was used to analysis. mEPSC-mIPSC were detected using a template generated from averaging several typical events (Clampfit 10, Molecular Devices). The template was slid along the data trace one point at a time. At each position, the template was optimally scaled and offset to fit the data. A lower-amplitude threshold of 7 pA and 10 pA were applied for mEPSC and mIPSC, respectably, equivalent to 2.5SD of baseline noise. For each cell, the kinetics of mEPSC-mIPSC was measured from the average event using Clampfit 10. To estimate decay times, a two exponentials curve was fitted between 5 and 95% of the decay phase of the current given by the following equation: y(t)=A1·e^(−t/τ1)+A2·e^(−t/τ2), where A is the amplitude, t is the time and τ is the decay time constant. The weighted tau was then calculated.
# In order to evaluate the effect of pregnenolone on the function of post-synaptic GABA we recorded mIPSC and compared its amplitude and decay time between groups. We observed that mIPSC amplitude and decay time were similar between controls (amplitude: 17.9±0.8 pA; decay time: 11.1±0.3 ms) and slices pre-treated with pregnenolone (100 nM and 1 μM, respectively; amplitude: 17.3±0.4 pA, 15.9±0.4 pA; decay time: 10.2±0.4 ms, 10.8±0.5 ms).
# [5] = Diet induced obesity, body weight and body composition; format: in vivo, C57BL/6J mice
# Procedure: 2-months old male C57BL/6J mice were ad libitum fed a 60% high-fat diet (HFD; Catalog #D12492, Research Diets, New Brunswick, N.J.) for 8 weeks and subsequently treated either with pegnenolone or vehicle. Homogeneous distribution of the animals in the 3 treatment groups was guaranteed by matching their body weight, fat mass and fasting glucose levels before the start of the pharmacological treatments.
# Fat mass and lean mass were assessed in vivo using an EchoMRI analyzer (EchoMedical Systems, Houston, Tex.) before the mice were placed on the HFD, as well as immediately before and at the end of the chronic treatment with pregnegnolone or its vehicle.
# In this example the inventors analyzed the ability of pregnenolone to inhibit the effects of CB1 activation in the context of obesity. The effects of pregnenolone on metabolic disorders were studied using the model of diet induced obesity (DIO) in mice. In this procedure animals are maintained on a high fat diet (60% of fat) which progressively induce obesity. After eight weeks on this diet which already induced overweight and excessive fat accumulation in these animals the treatment with pregnenolone was started for thirty days (once a day 2 mg/kg or 5 mg/kg, n=8).
# [6] = pregnenolone 5 mg/kg, magnetic resonance
# Sequence of CB1 receptor (Mus musculus, UniProt P47746) (P47746 whole entry, the tested form may be a part): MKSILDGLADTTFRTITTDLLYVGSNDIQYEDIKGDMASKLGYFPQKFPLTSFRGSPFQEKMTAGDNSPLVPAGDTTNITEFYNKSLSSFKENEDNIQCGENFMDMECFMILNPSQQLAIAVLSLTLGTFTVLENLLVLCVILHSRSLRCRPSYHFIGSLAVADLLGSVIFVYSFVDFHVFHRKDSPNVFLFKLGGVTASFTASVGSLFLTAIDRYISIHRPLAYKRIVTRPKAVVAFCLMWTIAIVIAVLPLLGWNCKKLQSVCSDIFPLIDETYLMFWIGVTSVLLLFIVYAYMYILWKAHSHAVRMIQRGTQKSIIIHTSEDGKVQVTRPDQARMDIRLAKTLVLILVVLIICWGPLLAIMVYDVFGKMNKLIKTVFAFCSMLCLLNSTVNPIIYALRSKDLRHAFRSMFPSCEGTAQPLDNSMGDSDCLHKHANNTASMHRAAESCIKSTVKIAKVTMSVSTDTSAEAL
# Sequence of CB1 receptor (Rattus norvegicus, UniProt P20272) (P20272 whole entry): as the sequence (P47746 whole entry, the tested form may be a part) above, with D95E counted along it
structure (smiles),measurement,setting,value
"CC(=O)[C@H]1CC[C@H]2[C@@H]3CC=C4C[C@@H](O)CC[C@]4(C)[C@H]3CC[C@]12C [Pregnenolone, 5-Pregnen-3β-ol-20-one]",effect on THC-induced food intake in sated rats,"[1]; THC 0.5 mg/kg, pregnenolone 30 min before THC",dose-dependently decreased THC-induced food intake
same,effect on basal food intake,"[1]; pregnenolone 2 mg/kg, FIG. 3 A, B",did not significantly modified basal food intake
same,dose with statistically significant effect on THC-induced food intake,"[1]; sated rats, THC 0.5 mg/kg",2 mg/kg
same,inhibition of fEPSP by THC,[2]; THC 10 μM,11.1±3.2%
same,inhibition of fEPSP by THC,[2]; THC 20 μM,22.7±2.7%
same,inhibition of fEPSP by THC,[2]; THC 40 μM,34.6±3.1%
same,effect on increase in TNF-alpha induced by LPS,[3],halved the increase in TNF-alpha
same,mIPSC amplitude,[4]; slices pre-treated with 100 nM,17.3±0.4 pA
same,mIPSC decay time,[4]; slices pre-treated with 100 nM,10.2 ± 0.4 ms
same,mIPSC amplitude,[4]; slices pre-treated with 1 μM,15.9±0.4 pA
same,mIPSC decay time,[4]; slices pre-treated with 1 μM,10.8 ± 0.5 ms
same,effect on food intake in DIO model,"[5]; high fat diet, food intake over 24 hours",did not modify food intake
same,effect on body weight,"[5]; high fat diet, once a day 2 or 5 mg/kg for thirty days, effect after 15 days",decreased body weight
same,effect on fat mass,[5]; [6],the increase in fat mass was suppressed
same,effect on lean mass,[5]; [6],the decrease in lean mass was blunted
